# Patent US8507550B2, “Treatment for altitudinal hypoxia” (AesRx LLC, priority 2010, dated 2013)
# Tests used:
# [1] = tested on: rats; settings: females; cited from earlier work
# [2] = tested on: human subject; assay: hypoxia induced by moderate exercise at elevated altitude in a human subject; assay type: in vivo; settings: 3,000 meters altitude, at rest 3 hours and after one hour bike; dosage giving P50 of 18 mm Hg; day 2 (treated) vs day 1
# Method: A 90 kg person in good health is transported from low elevation (<100 meters above sea level) to an altitude of 3,000 meters above sea level and kept at rest there for 3 hours. At that point, the subject is tested for respiration rate, heart rate and extremity O2. The subject is then put on a stationary exercise bike and allowed to ride the bike at a cadence of 40 rpm for one hour. The subject is again tested for respiration rate, heart rate and extremity O2. Then the subject is transported back to low elevation. […] The subject is kept at rest there for 3 hours, then tested for respiration rate, heart rate and extremity O2. The subject is then put on a stationary exercise bike and allowed to ride the bike at a cadence of 40 rpm for one hour. The subject is again tested for respiration rate, heart rate and extremity O2. The data from the two days are then compared.
# [3] = tested on: SCD Hb; settings: sickle cell disease mouse model; Abdulmalik 2004; cited from earlier work
# [4] = tested on: sickle cell disease mouse model; settings: Abdulmalik 2004; cited from earlier work
structure (smiles),measurement,setting,value
"O=Cc1ccc(CO)o1 [5-HMF, 5-hydroxymethyl-2-furfural]",acute oral LD50,[1],2.5 to 5.0 g/kg
same,"respiration rate, heart rate and extremity O2",[2],closer to normal on day 2 than on day 1
same,P50 of SCD Hb,[3],lower P50 (left shift)
same,in vivo protection against the lethal effects of hypoxia,[4],provides in vivo protection against the lethal effects of hypoxia
